# In patent US10383859B2, “Benzo[d]thiazole derivative or salt thereof, and pharmaceutical composition including same” (Yuhan Corporation, priority 2016, dated 2019):
# Tested on: A549 cells
# Assay: Cell migration assay (24-well transwell, laminin)
# Assay type: cell-based, human
# Conditions: Homo sapiens, A549, 6 h, laminin 10 μg/mL in lower well, test compounds 0.39˜100 μM, migrated cells counted, read-out: Inhibitory activity against cell migration
# Experimental: Cell migration was measured with a 24-well transwell having a polycarbonate membrane (8.0 μm pore size, Costar) at the bottom of the upper chamber. Each lower well was treated with laminin (10 μg/mL) and test compounds in predetermined concentrations (0.39˜100 μM) along with a serum-free RPMI1640 medium. A549 cells (Korean Cell Line Bank) were suspended in a serum-free RPMI1640 medium at a concentration of 1×10^6 cells/mL and then the test compounds were added thereto at the indicated concentrations. Each resulting solution (100 μL) was added to the upper chamber. The cells were cultured at 37° C. for 6 hours in a CO2 incubator. The upper chamber was taken out and then the cells were fixed with PBS containing 70% methyl alcohol for 10 minutes, followed by washing with PBS twice. The cells were stained with hematoxylin (Sigma) for 10 minutes and then washed with distilled water. The non-migrated cells were removed from the upper portion of the polycarbonate membrane with a cotton swab. The membranes were excised and separated from the chamber, and then mounted to a slide using a gel mount reagent (Biomeda, USA). The migrated cells (attached to the lower face of the membrane) were counted at three randomly selected sites under a microscope (×20). The cell counting was performed with the Image J program. From the counted cell numbers, each IC50 value was calculated by non-linear regression curve fit using the “GraphPad Prism” program.
# The cells are pulled by laminin residing in the lower chamber and then passed through the polycarbonate membrane, so as to attach to the lower face of the membrane.
row,IC50 [nM],SMILES
1,< 1000,"COc1ccc(CCN(Cc2ccc(C(=O)O)cc2Cl)c2nc3cccc(F)c3s2)cc1 [Example 78, 3-chloro-4-({(7-fluorobenzo[d]thiazol-2-yl)[2-(4-methoxyphenyl)ethyl]amino}methyl)benzoic acid]"
2,< 1000,"COc1ccc(CCN(Cc2ccc(C(=O)O)cc2)c2nc3cccc(F)c3s2)c(F)c1 [Example 26, 4-({(7-fluorobenzo[d]thiazol-2-yl)[2-(2-fluoro-4-methoxyphenyl)ethyl]amino}methyl)benzoic acid]"
3,> 10000,"CC(C)c1ccc(CCN(Cc2ccc(C(=O)O)cc2)c2nc3cccc(F)c3s2)cc1 [Example 33, 4-{[(7-fluorobenzo[d]thiazol-2-yl){2-[4-(propan-2-yl)phenyl]ethyl}amino]methyl}benzoic acid]"
4,< 1000,"COc1cc(F)c(CCN(c2nc3cccc(F)c3s2)C(C)c2ccc(C(=O)O)cc2)cc1F (centres unmarked) [Example 61, 4-(1-{[2-(2,5-difluoro-4-methoxyphenyl)ethyl](7-fluorobenzo[d]thiazol-2-yl)amino}ethyl)benzoic acid]"
5,< 1000,"COc1ccc(CCN(Cc2ccc(C(=O)O)cc2)c2nc3cc(F)cc(F)c3s2)cc1 [Example 93, 4-({(5,7-difluorobenzo[d]thiazol-2-yl)[2-(4-methoxyphenyl)ethyl]amino}methyl)benzoic acid]"
6,< 1000,"COc1ccc(CCN(c2nc3cccc(Cl)c3s2)C(C)c2ccc(C(=O)O)cc2)cc1 (centres unmarked) [Example 109, 4-(1-{(7-chloro-benzo[d]thiazol-2-yl)[2-(4-methoxyphenyl)ethyl]amino}ethyl)benzoic acid]"
7,< 1000,"CSc1cccc(CCN(Cc2ccc(C(=O)O)cc2)c2nc3cccc(F)c3s2)c1 [Example 13, 4-{[(7-fluorobenzo[d]thiazol-2-yl){2-[3-(methylsulfanyl)phenyl]ethyl}amino]methyl}benzoic acid]"
8,1000 to 10000,"CCNc1ccc(CCN(Cc2ccc(C(=O)O)cc2)c2nc3cccc(F)c3s2)cc1 [Example 31, 4-{[[2-(4-ethylaminophenyl)ethyl](7-fluorobenzo[d]thiazol-2-yl)amino]methyl}benzoic acid]"
9,> 10000,"O=C(O)c1ccc(CN(CCc2cccc(Cl)c2)c2nc3cccc(F)c3s2)cc1 [Example 5, 4-{[[2-(3-chlorophenyl)ethyl](7-fluorobenzo[d]thiazol-2-yl)amino]methyl}benzoic acid]"
10,> 10000,"COc1ccc(CCN(Cc2ccc(C(=O)O)cc2)c2nc3ccc(C(F)(F)F)c(F)c3s2)cc1 [Example 121, 4-({[7-fluoro-6-(trifluoromethyl)benzo[d]thiazol-2-yl][2-(4-methoxyphenyl)ethyl]amino}methyl)benzoic acid]"
11,< 1000,"COc1ccc(CCN(Cc2ccc(C(=O)O)cc2)c2nc3c(F)cc(F)cc3s2)cc1 [Example 95, 4-({(4,6-difluorobenzo[d]thiazol-2-yl)[2-(4-methoxyphenyl)ethyl]amino}methyl)benzoic acid]"
12,> 10000,"COc1ccc(CCN(c2nc3cc(Cl)ccc3s2)C(C)c2ccc(C(=O)O)cc2)cc1 (centres unmarked) [Example 107, 4-(1-{(5-chloro-benzo[d]thiazol-2-yl)[2-(4-methoxyphenyl)ethyl]amino}ethyl)benzoic acid]"
13,> 10000,"COc1ccc(CCN(c2nc3cc(Br)ccc3s2)C(C)c2ccc(C(=O)O)cc2)cc1 (centres unmarked) [Example 103, 4-(1-{(5-bromo-benzo[d]thiazol-2-yl)[2-(4-methoxyphenyl)ethyl]amino}ethyl)benzoic acid]"
14,> 10000,"CC(c1ccc(C(=O)O)cc1)N(CCc1cccc(F)c1F)c1nc2cccc(F)c2s1 (centres unmarked) [Example 57, 4-(1-{[2-(2,3-difluorophenyl)ethyl](7-fluorobenzo[d]thiazol-2-yl)amino}ethyl)benzoic acid]"
15,< 1000,"COc1ccc(CCN(Cc2ccc(C(=O)O)cc2)c2nc3cccc([N+](=O)[O-])c3s2)cc1 [Example 80, 4-({[2-(4-methoxyphenyl)ethyl](7-nitro-benzo[d]thiazol-2-yl)amino}methyl)benzoic acid]"
16,> 10000,"COc1ccc(CCN(c2nc3ccc(Cl)c(F)c3s2)C(C)c2ccc(C(=O)O)cc2)cc1 (centres unmarked) [Example 102, 4-(1-{(6-chloro-7-fluorobenzo[d]thiazol-2-yl)[2-(4-methoxyphenyl)ethyl]amino}ethyl)benzoic acid]"
17,> 10000,"COc1ccc(CCN(Cc2ccc(C(=O)O)cc2)c2nc3cccc(F)c3s2)c(C)c1C [Example 47, 4-({(7-fluorobenzo[d]thiazol-2-yl)[2-(4-methoxy-2,3-dimethylphenyl)ethyl]amino}methyl)benzoic acid]"

row,IC50 [nM],SMILES
1,> 10000,"O=C(O)c1ccc(CN(CCc2cc(F)c(F)c(F)c2)c2nc3cccc(F)c3s2)cc1 [Example 36, 4-({(7-fluorobenzo[d]thiazol-2-yl)[2-(3,4,5-trifluorophenyl)ethyl]amino}methyl)benzoic acid]"
2,> 10000,"COc1ccc(CCN(Cc2ccc(C(=O)O)cc2)c2nc3ccc(C(=O)O)cc3s2)cc1 [Example 117, 2-{(4-carboxybenzyl)[2-(4-methoxyphenyl)ethyl]amino}benzo[d]thiazole-6-carboxylic acid]"
3,1000 to 10000,"O=C(O)c1ccc(CN(CCc2ccc(Cl)cc2)c2nc3cccc(F)c3s2)cc1 [Example 4, 4-{[[2-(4-chlorophenyl)ethyl](7-fluorobenzo[d]thiazol-2-yl)amino]methyl}benzoic acid]"
4,> 10000,"O=C(O)c1ccc(CN(CCc2ccccc2F)c2nc3cccc(F)c3s2)cc1 [Example 41, 4-({(7-fluorobenzo[d]thiazol-2-yl)[2-(2-fluorophenyl)ethyl]amino}methyl)benzoic acid]"
5,< 1000,"COc1ccc(CCN(c2nc3cccc(F)c3s2)C(C)c2ccc(C(=O)O)cc2)c(C)c1 (centres unmarked) [Example 66, 4-(1-{(7-fluorobenzo[d]thiazol-2-yl)[2-(4-methoxy-2-methylphenyl)ethyl]amino}ethyl)benzoic acid]"
6,< 1000,"O=C(O)c1ccc(CN(CCc2ccccc2Cl)c2nc3cccc(F)c3s2)cc1 [Example 2, 4-(((2-chlorophenylethyl)(7-fluorobenzo[d]thiazol-2-yl)amino)methyl)benzoic acid]"
7,1000 to 10000,"COc1ccc(CCN(Cc2ccc(C(=O)O)cc2)c2nc3cccc(F)c3s2)c(OC)c1 [Example 27, 4-({[2-(2,4-dimethoxyphenyl)ethyl](7-fluorobenzo[d]thiazol-2-yl)amino}methyl)benzoic acid]"
8,> 10000,"CCC(c1ccc(C(=O)O)cc1)N(CCc1ccc(OC)cc1C)c1nc2cccc(F)c2s1 (centres unmarked) [Example 74, 4-(1-{(7-fluorobenzo[d]thiazol-2-yl)[2-(4-methoxy-2-methylphenyl)ethyl]amino}propyl)benzoic acid]"
9,< 1000,"COc1ccc(CCN(Cc2ccc(C(=O)O)cc2)c2nc3cccc(C(F)(F)F)c3s2)cc1 [Example 89, 4-{[[2-(4-methoxyphenyl)ethyl](7-trifluoromethyl-benzo[d]thiazol-2-yl)amino]methyl}benzoic acid]"
10,> 10000,"COc1ccc(CCN(c2nc3ccc(Br)cc3s2)C(C)c2ccc(C(=O)O)cc2)cc1 (centres unmarked) [Example 116, 4-(1-{(6-bromo-benzo[d]thiazol-2-yl)[2-(4-methoxyphenyl)ethyl]amino}ethyl)benzoic acid]"
11,< 1000,"CNc1ccc(CCN(Cc2ccc(C(=O)O)cc2)c2nc3cccc(F)c3s2)cc1 [Example 20, 4-{[(7-fluorobenzo[d]thiazol-2-yl){2-[4-(methylamino)phenyl]ethyl}amino]methyl}benzoic acid]"
12,< 1000,"COc1ccc(CCN(Cc2ccc(C(=O)O)cc2)c2nc3ccc(Cl)c(F)c3s2)cc1 [Example 88, 4-({(6-chloro-7-fluorobenzo[d]thiazol-2-yl)[2-(4-methoxyphenyl)ethyl]amino}methyl)benzoic acid]"
13,> 10000,"O=C(O)c1ccc(CN(CCc2ccc(OCC3CCCCC3)cc2)c2nc3cccc(F)c3s2)cc1 [Example 23, 4-{[[2-(4-cyclohexylmethoxyphenyl)ethyl]-(7-fluorobenzo[d]thiazol-2-yl)amino]methyl}benzoic acid]"
14,< 1000,"COc1ccc(CCN(Cc2ccc(C(=O)O)cc2)c2nc3cc(Cl)ccc3s2)cc1 [Example 85, 4-({(5-chloro-benzo[d]thiazol-2-yl)[2-(4-methoxyphenyl)ethyl]amino}methyl)benzoic acid]"
15,> 10000,"Cc1cccc(CCN(Cc2ccc(C(=O)O)cc2)c2nc3cccc(F)c3s2)c1 [Example 17, 4-({(7-fluorobenzo[d]thiazol-2-yl)[2-(3-methylphenyl)ethyl]amino}methyl)benzoic acid]"
16,< 1000,"COc1ccc(CCN(Cc2ccc(C(=O)O)cc2)c2nc3cccc(F)c3s2)cc1OC [Example 15, 4-({[2-(3,4-dimethoxyphenyl)ethyl](7-fluorobenzo[d]thiazol-2-yl)amino}methyl)benzoic acid]"
17,< 1000,"CSc1ccc(CCN(Cc2ccc(C(=O)O)cc2)c2nc3cccc(F)c3s2)cc1 [Example 12, 4-{[(7-fluorobenzo[d]thiazol-2-yl){2-[4-(methylsulfanyl)phenyl]ethyl}amino]methyl}benzoic acid]"

row,SMILES,IC50 [nM]
1,"CC(C)COc1ccc(CCN(Cc2ccc(C(=O)O)cc2)c2nc3cccc(F)c3s2)cc1 [Example 18, 4-({(7-fluorobenzo[d]thiazol-2-yl)[2-(4-isobutoxyphenyl)ethyl]amino}methyl)benzoic acid]",1000 to 10000
